The results in this text go back to paper PMC11061730, “Bacterial stigmasterol degradation involving radical flavin delta-24 desaturase and molybdenum-dependent C26 hydroxylase” (The Journal of Biological Chemistry, 2024).

In series [1] the target is T1, Δ24-steroid desaturase (Δ24-SD) (Sterolibacterium denitrificans, UniProt A0A7Z7MWF7+A0A7Z7MWR3).
T1 construct: gene SDENCHOL_21263; alpha 63 kDa, beta 57 kDa; covalent FMN on a histidine of each subunit
In words: LC-MS/MS of tryptic peptides; acid denaturation. It is filed as binding. The conditions noted are these: covalent; histidyl residue near N terminus in both subunits.

Substrate in series [2]: CC[C@H](/C=C/[C@@H](C)[C@H]1CC[C@H]2[C@@H]3CCC4=CC(=O)C=C[C@]4(C)[C@H]3CC[C@]12C)C(C)C
In words: UPLC assay of SDO to STO conversion, Michaelis-Menten fit. The conditions noted are these: 1 mM DCPIP as electron acceptor, 50 mM Mops/KOH pH 7.0, 6% (w/v) HPCD, 30 °C, aerobic. It is filed as biochemical, Sterolibacterium denitrificans.

For `Cc1cc2nc3c(=O)[nH]c(=O)nc-3n(C[C@H](O)[C@H](O)[C@H](O)COP(=O)(O)O)c2cc1C` [flavin mononucleotide], the “LC-MS/MS of tryptic peptides; acid denaturation” value in series [1] is recorded as “contained flavin mononucleotide (FMN) modifications in both subunits”.

B1: Δ24-steroid desaturase (Δ24-SD) (Sterolibacterium denitrificans) (protein)
chain 1: MKNYDVIIIGGGINGLTTACYLQKAGLSVGVFEARGQCGAHCDTIELGRPGFLFNTHATWLVPAMSPPMADLELEKFNLELLGTDVIFAMPHADGTNTVQALDPGITMASIARHSEKDAALLGRIMEFGMMHMQEALEINGQMQYSRPTMALAERIAKLNDGLCKHLGLPIDGDDVMRMTGFELLELVYESEKVRLVPGTLGEYTGQWPLNRRVAPTVLGLCGMNPMAVHTAKGGSHALNHALVRCFVKHGGEIWTTCPVSKIIVENGRAVGIKLSEDALMPGEEIRAKNIVSNLTLTPTFTKLLGEEVIGPDWMRRIKYFNYDDPQLLGMYYAMKDAPVFKSAEYDPAIQRCWVGYFGPDSIDDVRNAQSQVMAGIMPTQTMGGWFNPTLADPSQAPAGHHVVSTWITVPPSPRKWGNKTLNGWSSWREGFGEALADTMDDLYEKMAPGFKDLIIERHINTPMDQENSNPSAVRGNMIGGSAIPEQAGENRPLPGVCVNGASRTFIPGLYLSNSIHPFGATHLASGYIAAVELAEDLGCRNQSWWISQPFEWFMGNLGNIPLNAGVADKWKV
chain 2: MSNETKFDAIVIGGGPNGLLAGAYLAKTGHKVVLFERRHETGGGLNTDEYFGFRFNLHAIYHLMAEKMPAWKDLDLANFGVRYLYPHVVAAFPFKDGSSLIFTRDVKETAESIAQFSKEDAAAYLAMWDEFQPMLDDYLIPMTYELPKPALDQLAEFGETEVGAKLAEISELSCLEVIDHYGFTHPRVRMALLSFPAMWGIHLADPLGFLYPLYLGRMLDAAFVKGGSHRLSSGMYRVFVKNGGTVIDENEVTRILVEDNRVTGVELQDGRRFMADAVVSTLNPVQTFKQLLPKDDVPYALHQAVDNWRWEERSFFGLHLGIDGGVRYNAQDPRVNEAMTVFIGLETEDELLDHLDRVDGKTTNGPEWLHIAQPTTFDKTMAPPNHSVIRAEAVVAYDPEWRARTPAFAAGCLDLIKQYATVDKVVQQRTVSPIDIEEKLTTMHRGSYKHGAYSTLQLGYLRPNDLCSCSETPIDGLFLGGASMYPGGMILGGPGYLAAQVTNDYLGEPVKK
notes: alpha 63 kDa, beta 57 kDa; covalent FMN on a histidine of each subunit
As a reminder, the Km is the concentration of substrate that gives half-maximal velocity. As for B1, the Km in series [2] turned out to be 51.5 ± 8.2 µM.
